Data reported in patent publication US10045978B2 (AB SCIENCE, priority 2010, dated 2018).

Tested on: patients with indolent mastocytosis with handicap bearing the D816V c-Kit mutation
Assay: Example 2 phase 2a study, efficacy
Format: in vivo, human
Design: mean reduction of FIS score / mean reduction of pruritus score / mean reduction in frequency of flushes / reduction of daily number of stools / reduction of daily number of micturition / AFIRMM score reduction: concentration or dose not given beside the values
Settings: week 12
Source text: Eligible patients were aged >18 years, had previously documented indolent systemic, smoldering systemic or cutaneous mastocytosis as per the WHO classification with associated disability as the result of mast cell released mediators. Patients had to have a positive D816V c-Kit mutation status, i.e. documented presence of D816V mutation in at least one infiltrated organ including bone marrow or skin. For patients with prior documented presence of D816V mutation in at least one infiltrated organ (bone marrow or skin), no test was performed at the screening visit; however, for those patients without such documentation it was necessary to perform c-Kit molecular analysis prior to randomization. Skin biopsy and optionally (unless patients had no cutaneous lesion) a bone marrow aspirate or biopsy, were performed at baseline to confirm the presence of D816V mutation and to count mast cells in the infiltrated organs. All skin biopsies, bone marrow aspirate or biopsies, performed for this study were sent to the AB Science central laboratory for sequencing and mast cell counting. Patients were classified as having a handicap if after appropriate symptomatic treatments they fulfilled at least one of the following a priori criteria: number of flushes/week ≥7; pruritus score ≥6; number of stools ≥4/day (i.e. diarrhea); micturition frequency ≥8/day (i.e. pollakiuria); Hamilton rating for depression ≥10; Fatigue Impact Scale (FIS) score ≥40; or EORTC quality-of-life questionnaire (QLQ-C30) score ≥60. Patients were excluded if they experienced inadequate organ function defined via blood test levels, or an Eastern Cooperative Oncology Group performance status >2. Other exclusion criteria included: life expectancy <6 months, severe or uncontrolled medical disease, and patients who were pregnant or nursing.
In accordance to the AFIRMM study (Hermine O, et al., 2008, PLoS ONE. 3:e2266), evaluation of treatment response was based upon the change of clinical symptoms associated with a patient's handicaps at week 12 relative to baseline. Efficacy was assessed on the symptoms of mastocytosis. Primary efficacy endpoints were treatment effect on the pruritus score, the number of flushes per week, the Hamilton score, and the Fatigue Impact scale.

[1] = patients with this handicap at baseline

Structure (SMILES): Cc1ccc(NC(=O)c2ccc(CN3CCN(C)CC3)cc2)cc1Nc1nc(-c2cccnc2)cs1 [masitinib, 4-(4-methylpiperazin-1-ylmethyl)-N-[4-methyl-3-(4-pyridin-3ylthiazol-2-ylamino)phenyl]benzamide]
- AFIRMM score reduction: 32.0%
- Hamilton score improvement (PP population): 27.0%
- mean reduction in frequency of flushes (PP population): 45.5%
- mean reduction of FIS score (PP population): 51.8%
- mean reduction of pruritus score (PP population): 46.0%
- overall response rate (improvement ≥50%) (PP population (14 of 20 patients)): 70%
- patients remaining stable (PP population (four patients)): 20%
- reduction of daily number of stools (patients with diarrhea at baseline): 41.3%
- reduction of daily number of micturition (patients with pollakiuria at baseline): 30.3%
- Hamilton score improvement [1]: 44.3%
- mean reduction in frequency of flushes [1]: 55.3%
- mean reduction of FIS score [1]: 45.6%
